# System: MC38 tumors
# Assay: MC38 subcutaneous syngeneic tumor model in WT C57Bl/6J mice
# Settings: LTV1 6 mg/kg/dose, treatment analogous to L1
# Procedure: All mice husbandry, experiments, and euthanasia were performed in accordance with Johns Hopkins IACUC approved protocols. WT C57Bl/6J, Balb/cJ, and PTPN22 KO (B6.Cg-Ptpn22tm2Achn/J) mice were purchased from JAX and bred in-house. For syngeneic immunocompetent mouse models, aged-matched 8-12 week old female mice were injected with MC38 (2.5×10^5) or EG7 (2.5×10^5 for rejection and 5×10^5 for treatment) or CT26 (5×10^5) subcutaneously in the right hind limb. […] LTV1 was also dissolved in DMSO and diluted to the same final formulation for administration at 6 mg/kg/dose. Vehicle injections contained 10% DMSO and 5% cremophor-EL in PBS.
smiles,measurement,value
Cc1ccccc1N1C(=O)/C(=C/c2ccc(OCc3cccc(C(=O)O)c3)cc2)C(=O)NC1=S [LTV1],MC38 tumor growth compared to vehicle,moderately decreased tumor growth
